In patent publication US20240247080A1, “GLP1/GIP/NPY2 RECEPTOR TRIPLE AGONISTS” (Boehringer Ingelheim International GmbH, priority 2022, published 2024):
Where two headings read alike, the source gives them in different places. Starred links: 1 amine or outer side, 2 acyl side, 3 side chain; linkers in the order of their positions; H or OH if unused. Non-standard residues stand in square brackets, D forms with d. Groups on a side chain read outwards from the residue. *: point of attachment. C20 diacid = O=C(O)CCCCCCCCCCCCCCCCCCC(=O)*; C18 diacid = O=C(O)CCCCCCCCCCCCCCCCC(=O)*; γGlu = O=C(O)[C@H](CCC(=O)[*:2])N[*:1]; εLys = N[C@@H](CCCCN[*:1])C(=O)[*:2]; NMeR = CN[C@@H](CCCNC(=N)N)C(=O)O; β3hQ = NC(=O)CC[C@H](N)CC(=O)O; AEEA = NCCOCCOCC(=O)O; Aib = CC(C)(N)C(=O)O

Key:
Format in all cases: cell-based
Details in all cases: CreLuc reporter gene assay
hGLP1R = biological target: T1, hGLP1R (Homo sapiens, UniProt P43220); experiment: hGLP1R CreLuc reporter gene assay in 0.5% and 100% plasma
T1 construct: expressed in transfected cells; host or cells: HEK-293 cells carrying a CRE-luciferase reporter gene
In short: (§1)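 HEK-293 cells co-expressing GLP-1 or NPY2 receptor and CHO cells expressing GIP receptor, each carrying a CRE-driven luciferase reporter, were stimulated with peptides for 4 hours at 37 °C. Luminescence was read after Bright-Glo addition. EC50 came from 8-point, four-decade curves fitted by variable-slope non-linear regression.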

hGIPR = biological target: T2, hGIPR (Homo sapiens, UniProt P48546); experiment: hGIPR CreLuc reporter gene assay in 0.5% and 100% plasma
T2 construct: expressed in transfected cells; host or cells: CHO cells carrying a CRE-luciferase reporter gene
T2 sequence (P48546 22-466): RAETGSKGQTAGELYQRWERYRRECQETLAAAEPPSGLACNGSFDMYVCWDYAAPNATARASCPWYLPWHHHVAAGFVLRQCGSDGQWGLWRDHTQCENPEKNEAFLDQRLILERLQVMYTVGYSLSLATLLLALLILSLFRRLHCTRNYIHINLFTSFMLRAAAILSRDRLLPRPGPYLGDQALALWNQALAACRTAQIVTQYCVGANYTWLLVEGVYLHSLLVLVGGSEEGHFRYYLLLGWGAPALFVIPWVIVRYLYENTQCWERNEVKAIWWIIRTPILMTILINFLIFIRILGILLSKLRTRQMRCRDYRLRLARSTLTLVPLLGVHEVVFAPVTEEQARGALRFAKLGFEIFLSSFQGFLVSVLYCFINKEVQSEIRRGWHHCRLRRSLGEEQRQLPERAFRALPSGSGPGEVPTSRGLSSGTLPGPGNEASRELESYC
In short: as §1

hNPY2R = biological target: T3, hNPY2R (Homo sapiens, UniProt P49146); experiment: hNPY2R CreLuc reporter gene assay in 0.5% and 100% plasma
T3 construct: expressed in transfected cells; host or cells: HEK-293 cells carrying a CRE-luciferase reporter gene
T3 sequence (P49146 1-381): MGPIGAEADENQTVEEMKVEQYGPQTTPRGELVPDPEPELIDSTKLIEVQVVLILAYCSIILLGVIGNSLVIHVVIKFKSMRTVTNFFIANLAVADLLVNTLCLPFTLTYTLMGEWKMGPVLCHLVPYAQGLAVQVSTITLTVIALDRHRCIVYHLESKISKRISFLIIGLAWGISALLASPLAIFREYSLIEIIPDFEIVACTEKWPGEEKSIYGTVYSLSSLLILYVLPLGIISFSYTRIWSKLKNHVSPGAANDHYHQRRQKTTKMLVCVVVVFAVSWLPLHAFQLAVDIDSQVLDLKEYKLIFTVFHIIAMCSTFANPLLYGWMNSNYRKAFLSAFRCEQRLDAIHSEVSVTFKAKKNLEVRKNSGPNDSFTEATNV
In short: as §1

[1] = 0.5% human plasma, read-out: hGLP1R 0.5% hP
[2] = 0.5% human plasma, read-out: hGIPR 0.5% hP
[3] = 0.5% human plasma, read-out: hNPY2R 0.5% hP
[4] = 100% human plasma, read-out: hNPY2R 100% hP
[5] = 100% human plasma, read-out: hGLP1R 100% hP
[6] = 100% human plasma, read-out: hGIPR 100% hP

T1 sequence (P43220 24-463): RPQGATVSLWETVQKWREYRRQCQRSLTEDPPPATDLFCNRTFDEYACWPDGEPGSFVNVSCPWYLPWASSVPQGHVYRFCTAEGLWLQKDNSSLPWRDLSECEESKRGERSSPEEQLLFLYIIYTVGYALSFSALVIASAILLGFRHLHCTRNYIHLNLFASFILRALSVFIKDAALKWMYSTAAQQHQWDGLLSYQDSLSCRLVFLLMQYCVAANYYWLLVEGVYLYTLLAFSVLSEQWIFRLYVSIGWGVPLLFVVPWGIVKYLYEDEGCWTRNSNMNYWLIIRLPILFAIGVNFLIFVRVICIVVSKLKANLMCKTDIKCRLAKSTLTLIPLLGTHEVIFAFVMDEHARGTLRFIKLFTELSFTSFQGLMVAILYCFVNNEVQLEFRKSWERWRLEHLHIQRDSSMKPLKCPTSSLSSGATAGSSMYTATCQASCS

H-Y[Aib]EGTFTSDYSI[Aib]LEKQAQ[Aib]AFVQWLIK([εLys-γGlu-γGlu-γGlu-γGlu-γGlu-C20 diacid])GGPSEPASLRHYYNWLTRQRY-NH2 [Compound 169, Y-Aib-E-G-T-F-T-S-D-Y-S-I-Aib-L-E-K-Q-A-Q-Aib-A-F-V-Q-W-L-I-K(1,3)-GGPSEPASLRHYYNWLTRQRY-NH2.C20DA-gGlu-gGlu-gGlu-gGlu-gGlu-eLys(1,2)]
EC50 (hGLP1R; [1]): 0.13 nM
EC50 (hGIPR; [2]): 0.26 nM
EC50 (hNPY2R; [3]): 10.3 nM
EC50 (hNPY2R; [4]): 50.3 nM

H-Y[Aib]EGTFTSDYSI[Aib]LEKQAQ[Aib]AFVQWLIK([εLys-γGlu-γGlu-γGlu-γGlu-γGlu-C20 diacid])GGPSEYASLRHYYNWLTRQRY-NH2 [Compound 189, Y-Aib-E-G-T-F-T-S-D-Y-S-I-Aib-L-E-K-Q-A-Q-Aib-A-F-V-Q-W-L-I-K(1,3)-GGPSEYASLRHYYNWLTRQRY-NH2.C20DA-gGlu-gGlu-gGlu-gGlu-gGlu-eLys(1,2)]
EC50 (hGLP1R; [1]): 0.21 nM
EC50 (hGLP1R; [5]): 10.2 nM
EC50 (hGIPR; [2]): 0.31 nM
EC50 (hNPY2R; [3]): 8.03 nM
EC50 (hNPY2R; [4]): 45.8 nM

H-Y[Aib]EGTFTSDYSI[Aib]LEKQAQ[Aib]AFVQWLIK([εLys-γGlu-γGlu-γGlu-γGlu-γGlu-γGlu-C18 diacid])GGPEEGASLRHYYNWLTRQRY-NH2 [Compound 149, Y-Aib-E-G-T-F-T-S-D-Y-S-I-Aib-L-E-K-Q-A-Q-Aib-A-F-V-Q-W-L-I-K(1,3)-GGPEEGASLRHYYNWLTRQRY-NH2.C18DA-gGlu-gGlu-gGlu-gGlu-gGlu-gGlu-eLys(1,2)]
EC50 (hGLP1R; [1]): 0.15 nM
EC50 (hGLP1R; [5]): 4.76 nM
EC50 (hGIPR; [2]): 0.58 nM
EC50 (hGIPR; [6]): 0.79 nM
EC50 (hNPY2R; [3]): 18.6 nM

H-Y[Aib]EGTFTSDYSI[Aib]LEKQAQ[Aib]AFVQWLIK([εLys-γGlu-γGlu-γGlu-γGlu-γGlu-γGlu-C18 diacid])GGPSSGASLRHYYNWLTRQRY-NH2 [Compound 170, Y-Aib-E-G-T-F-T-S-D-Y-S-I-Aib-L-E-K-Q-A-Q-Aib-A-F-V-Q-W-L-I-K(1,3)-GGPSSGASLRHYYNWLTRQRY-NH2.C18DA-gGlu-gGlu-gGlu-gGlu-gGlu-gGlu-eLys(1,2)]
EC50 (hGLP1R; [1]): 0.09 nM
EC50 (hGIPR; [2]): 0.24 nM
EC50 (hGIPR; [6]): 1.15 nM
EC50 (hNPY2R; [3]): 19.2 nM

H-Y[Aib]EGTFTSDYSI[Aib]LEKQAQ[Aib]AFVQWLIK([εLys-γGlu-γGlu-γGlu-γGlu-γGlu-γGlu-C20 diacid])GGPEEGASLRHYYNWLTRQRY-NH2 [Compound 89, Y-Aib-E-G-T-F-T-S-D-Y-S-I-Aib-L-E-K-Q-A-Q-Aib-A-F-V-Q-W-L-I-K(1,3)-GGPEEGASLRHYYNWLTRQRY-NH2.C20DA-gGlu-gGlu-gGlu-gGlu-gGlu-gGlu-eLys(1,2)]
EC50 (hGLP1R; [1]): 0.25 nM
EC50 (hGIPR; [2]): 1.01 nM
EC50 (hNPY2R; [3]): 14.8 nM

H-Y[Aib]EGTFTSDYSI[Aib]LEKQAQ[Aib]AFVQWLIK([εLys-γGlu-γGlu-γGlu-γGlu-γGlu-γGlu-C20 diacid])GGPSEGASLRHYYNWLTRQ[NMeR]Y-NH2 [Compound 125, Y-Aib-E-G-T-F-T-S-D-Y-S-I-Aib-L-E-K-Q-A-Q-Aib-A-F-V-Q-W-L-I-K(1,3)-G-G-P-S-E-G-A-S-L-R-H-Y-Y-N-W-L-T-R-Q-NMeR-Y-NH2.C20DA-gGlu-gGlu-gGlu-gGlu-gGlu-gGlu-eLys(1,2)]
EC50 (hGLP1R; [1]): 0.23 nM
EC50 (hGIPR; [2]): 0.28 nM
EC50 (hGIPR; [6]): 1.72 nM
EC50 (hNPY2R; [3]): 30.9 nM
EC50 (hNPY2R; [4]): 99.3 nM

H-Y[Aib]EGTFTSDYSI[Aib]LEKQAQ[Aib]AFVQWLIK([εLys-γGlu-γGlu-γGlu-γGlu-γGlu-γGlu-C20 diacid])GGPSEGASLRHYYNWLTR[β3hQ]RY-NH2 [Compound 186, Y-Aib-E-G-T-F-T-S-D-Y-S-I-Aib-L-E-K-Q-A-Q-Aib-A-F-V-Q-W-L-I-K(1,3)-G-G-P-S-E-G-A-S-L-R-H-Y-Y-N-W-L-T-R-bHGln-R-Y-NH2.C20DA-gGlu-gGlu-gGlu-gGlu-gGlu-gGlu-eLys(1,2)]
EC50 (hGLP1R; [1]): 0.11 nM
EC50 (hGIPR; [2]): 0.11 nM
EC50 (hGIPR; [6]): 0.77 nM
EC50 (hNPY2R; [3]): > 99.9 nM

H-Y[Aib]EGTFTSDYSI[Aib]LEKQAQ[Aib]AFVQWLIK([εLys-γGlu-γGlu-γGlu-γGlu-γGlu-γGlu-C20 diacid])GGPSEGVSLRHYYNWLTRQRY-NH2 [Compound 114, Y-Aib-E-G-T-F-T-S-D-Y-S-I-Aib-L-E-K-Q-A-Q-Aib-A-F-V-Q-W-L-I-K(1,3)-GGPSEGVSLRHYYNWLTRQRY-NH2.C20DA-gGlu-gGlu-gGlu-gGlu-gGlu-gGlu-eLys(1,2)]
EC50 (hGLP1R; [1]): 0.15 nM
EC50 (hGIPR; [2]): 0.27 nM
EC50 (hNPY2R; [4]): 44.8 nM

H-Y[Aib]EGTFTSDYSI[Aib]LEKQAQ[Aib]AFVQWLIK([εLys-γGlu-γGlu-γGlu-γGlu-γGlu-γGlu-C20 diacid])GGPSSYVSLRHYYNWLTRQRY-NH2 [Compound 15, Y-Aib-E-G-T-F-T-S-D-Y-S-I-Aib-L-E-K-Q-A-Q-Aib-A-F-V-Q-W-L-I-K(1,3)-GGPSSYVSLRHYYNWLTRQRY-NH2.C20DA-gGlu-gGlu-gGlu-gGlu-gGlu-gGlu-eLys(1,2)]
EC50 (hGLP1R; [1]): 0.16 nM
EC50 (hGIPR; [2]): 0.32 nM
EC50 (hGIPR; [6]): 2.43 nM
EC50 (hNPY2R; [4]): 15.4 nM

H-Y[Aib]EGTFTSDYSI[Aib]LEKQAQ[Aib]AFVQWLIK([εLys-γGlu-γGlu-γGlu-γGlu-γGlu-γGlu-C20 diacid])GGQRSYASLRHYYNWLTRQRY-NH2 [Compound 3, Y-Aib-E-G-T-F-T-S-D-Y-S-I-Aib-L-E-K-Q-A-Q-Aib-A-F-V-Q-W-L-I-K(1,3)-GGQRSYASLRHYYNWLTRQRY-NH2.C20DA-gGlu-gGlu-gGlu-gGlu-gGlu-gGlu-eLys(1,2)]
EC50 (hGLP1R; [1]): 0.45 nM
EC50 (hGIPR; [2]): 0.53 nM
EC50 (hNPY2R; [4]): 23 nM

H-Y[Aib]EGTFTSDYSI[Aib]LEKQAQ[Aib]EFVEWLIK([AEEA-AEEA-γGlu-C18 diacid])GGPSEGASLRHYYNWLTRQRY-NH2 [Compound 282, Y-Aib-E-G-T-F-T-S-D-Y-S-I-Aib-L-E-K-Q-A-Q-Aib-E-F-V-E-W-L-I-K(1,3)-GGPSEGASLRHYYNWLTRQRY-NH2.C18DA-gGlu-OEG-OEG(1,2)]
EC50 (hGLP1R; [1]): 0.51 nM
EC50 (hGIPR; [2]): 0.17 nM
EC50 (hGIPR; [6]): 1.03 nM
EC50 (hNPY2R; [3]): 17.3 nM

H-Y[Aib]EGTFTSDYSI[Aib]LEKQAQ[Aib]EFVEWLIK([AEEA-AEEA-γGlu-γGlu-γGlu-C18 diacid])GGPSSGASLRHYYNWLTRQRY-NH2 [Compound 171, Y-Aib-E-G-T-F-T-S-D-Y-S-I-Aib-L-E-K-Q-A-Q-Aib-E-F-V-E-W-L-I-K(1,3)-GGPSSGASLRHYYNWLTRQRY-NH2.C18DA-gGlu-gGlu-gGlu-OEG-OEG(1,2)]
EC50 (hGLP1R; [1]): 0.27 nM
EC50 (hGLP1R; [5]): 4.17 nM
EC50 (hGIPR; [2]): 0.2 nM
EC50 (hGIPR; [6]): 0.83 nM
EC50 (hNPY2R; [4]): 30.4 nM

H-Y[Aib]EGTFTSDYSI[Aib]LEKQAQ[Aib]EFVEWLIK([AEEA-AEEA-γGlu-γGlu-γGlu-γGlu-C18 diacid])GGPSSPASLRHYYNWLTRQRY-NH2 [Compound 56, Y-Aib-E-G-T-F-T-S-D-Y-S-I-Aib-L-E-K-Q-A-Q-Aib-E-F-V-E-W-L-I-K(1,3)-GGPSSPASLRHYYNWLTRQRY-NH2.C18DA-gGlu-gGlu-gGlu-gGlu-OEG-OEG(1,2)]
EC50 (hGLP1R; [1]): 0.25 nM
EC50 (hGLP1R; [5]): 8.97 nM
EC50 (hGIPR; [2]): 0.27 nM
EC50 (hNPY2R; [3]): 27.3 nM
EC50 (hNPY2R; [4]): 48.8 nM

H-Y[Aib]EGTFTSDYSI[Aib]LEKQAQ[Aib]EFVEWLIK([AEEA-AEEA-γGlu-γGlu-γGlu-γGlu-C20 diacid])GGPSSGASLRHYYNWLTRQRY-NH2 [Compound 205, Y-Aib-E-G-T-F-T-S-D-Y-S-I-Aib-L-E-K-Q-A-Q-Aib-E-F-V-E-W-L-I-K(1,3)-GGPSSGASLRHYYNWLTRQRY-NH2.C20DA-gGlu-gGlu-gGlu-gGlu-OEG-OEG(1,2)]
EC50 (hGLP1R; [1]): 0.44 nM
EC50 (hGIPR; [2]): 0.33 nM
EC50 (hNPY2R; [3]): 10.6 nM
